Data: US20220289698A1, “INHIBITORS OF HUMAN ATGL” (Karl-Franzens-Universität Graz, priority 2019, published 2022)
Like-named read-outs stand apart in the source and are kept apart here.

How the values were obtained:
human ATGL = target: T1, human ATGL (Homo sapiens, UniProt Q96AD5); test: TG hydrolase activity, Expi cell lysates expressing human ATGL + CGI-58, radiolabelled triolein; type: biochemical
T1 construct: made in house; host or cells: Expi cells (lysate, not purified)
T1 sequence (Q96AD5 1-504): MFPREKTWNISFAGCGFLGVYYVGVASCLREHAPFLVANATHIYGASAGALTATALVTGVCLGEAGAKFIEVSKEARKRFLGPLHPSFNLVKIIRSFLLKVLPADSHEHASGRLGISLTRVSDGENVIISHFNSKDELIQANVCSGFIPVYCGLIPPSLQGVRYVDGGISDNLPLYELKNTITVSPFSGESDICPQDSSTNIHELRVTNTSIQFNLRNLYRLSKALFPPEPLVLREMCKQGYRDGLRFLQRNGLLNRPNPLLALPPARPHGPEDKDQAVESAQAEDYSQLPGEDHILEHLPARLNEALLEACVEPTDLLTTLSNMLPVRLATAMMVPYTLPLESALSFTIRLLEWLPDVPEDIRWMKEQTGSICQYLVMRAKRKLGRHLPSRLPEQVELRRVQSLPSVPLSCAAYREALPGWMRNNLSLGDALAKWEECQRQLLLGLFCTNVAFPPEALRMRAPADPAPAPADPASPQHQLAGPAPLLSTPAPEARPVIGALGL
Method: (§1) Triglyceride (TG) hydrolase activity was measured as previously described (Schweiger M et al., Methods in Enzymology, 2014, 538:171-93). In brief, TG hydrolase activity was determined by adding recombinant purified CGI-58 to Expi cell lysates expressing human ATGL. For determination of cross-species reactivity Expi lysates expressing ATGL from different model organisms (e.g. mouse, rat, rhesus monkey, goat, etc.) were used. Samples were incubated with DMSO (carrier) or increasing concentrations of ATGL inhibitors dissolved in DMSO. TG substrate was prepared by emulsifying 330 μM radiolabelled triolein (40,000 c.p.m./nmol) and 45 μM phosphatidylcholine/phosphatidylinositol (3:1) in 100 mM potassium phosphate buffer (pH 7.0) by sonication and adjusting to 5% essentially FA-free BSA. TG substrate was added to the reaction mixture and incubated for 1 h at 37° C. in the water bath. The reaction was terminated by adding methanol/chloroform/heptane (10:9:7) and 0.1 M potassium carbonate with 0.1 M boric acid (pH 10.5). After centrifugation at 800 g for 15 min the radioactivity in the upper phase was determined by liquid scintillation counting and the rate of FA hydrolysis was calculated. IC50 values were determined as inhibitor concentration capable of inhibiting TG hydrolase activity by 50% as compared to DMSO control. Samples were measured as duplicates. The determination of IC50 values for human ATGL is illustrated in FIG. 1.

murine ATGL = target: T2, murine ATGL (Mus musculus, UniProt Q8BJ56); test: TG hydrolase activity, Expi lysates expressing mouse ATGL + CGI-58, radiolabelled triolein; type: biochemical
T2 construct: made in house; host or cells: Expi cells (lysate)
T2 sequence (Q8BJ56 1-486): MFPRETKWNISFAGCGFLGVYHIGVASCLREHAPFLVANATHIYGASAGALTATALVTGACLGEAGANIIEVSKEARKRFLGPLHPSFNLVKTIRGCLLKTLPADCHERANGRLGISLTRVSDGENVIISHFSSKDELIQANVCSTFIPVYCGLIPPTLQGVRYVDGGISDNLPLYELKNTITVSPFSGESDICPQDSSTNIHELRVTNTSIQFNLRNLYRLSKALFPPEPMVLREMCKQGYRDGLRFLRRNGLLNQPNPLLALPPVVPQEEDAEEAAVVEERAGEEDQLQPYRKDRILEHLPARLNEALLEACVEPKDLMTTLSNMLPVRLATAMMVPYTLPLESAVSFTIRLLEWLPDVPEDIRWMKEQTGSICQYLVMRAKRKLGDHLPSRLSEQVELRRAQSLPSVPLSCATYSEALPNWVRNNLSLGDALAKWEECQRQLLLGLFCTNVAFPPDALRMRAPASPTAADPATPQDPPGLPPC
Method: as §1
Lysates from Expi cells overexpressing ATGL from mouse (Mus musculus) were incubated with recombinant purified ATGL co-activator CGI-58 and ATGL inhibitors at 50 μM. Subsequently, substrate containing radiolabeled triolein was added and liberated FA were extracted and quantified by liquid scintillation. Inhibitors were dissolved in DMSO which was used as control. Samples were measured in triplicates.

[1] = Example 237, read-out: Inhibition of human ATGL − IC50
[2] = 50 μM compound, Example 237, read-out: Inhibition of murine ATGL at 50 μM − mean [%]
[3] = values of text and figure legend, read-out: IC50 on human ATGL (hATGL)
[4] = 50 μM, Example 238, read-out: % Inhibition of murine ATGL at 50 μM
[5] = Example 238, read-out: Inhibition of human ATGL IC50

Structure (SMILES) | IC50 (human ATGL; [1]) [µM] | other results
CCOC(=O)c1cccc(-c2ccc(COC(C)=O)cc2)n1 [Example 93] | 20 | –
CCOC(=O)c1csc(-c2ccc(OC(C)C)cc2)n1 [Example 106, Ethyl 2-(4-isopropoxyphenyl)thiazole-4-carboxylate] | 5 | inhibition at 50 µM (murine ATGL; [2]): 21.6%
CCCC(C)OC(=O)c1csc(-c2ccc(OCC)cc2)n1 (stereo not drawn) [Example 117, Pentan-2-yl 2-(4-ethoxyphenyl)thiazole-4-carboxylate] | 3 | inhibition at 50 µM (murine ATGL; [2]): 7.4%
COCOc1ccc(-c2cccc(C(=O)OC(C)C)n2)cc1 [Example 13] | 8 | –
C#CC(C)OC(=O)c1cc(OC)cc(-c2ccc(CCC)cc2)n1 (stereo not drawn) [Example 54] | 20 | inhibition at 50 µM (murine ATGL; [2]): 0%
CCCCc1ccc(-c2cc(OC)cc(C(=O)OC(C)C)n2)cc1 [Example 57] | 2 | –
CC(C)OC(=O)c1cccc(OCCc2ccccc2)n1 [Example 91] | 50 | –
CCOC(=O)c1cc(-c2ccc(OCC)cc2)no1 [AMU-4-245, reference compound] | – | IC50 (human ATGL; [3]): ≥ 200 µM
CC(C)OC(=O)c1cccc(-c2ccc(OC(C)C)cc2)n1 [Example 95] | 3 | inhibition at 50 µM (murine ATGL; [2]): 13.1%
CCOC(=O)c1nc(-c2ccc(OCC)cc2)sc1OC [Example 126, Ethyl 2-(4-ethoxyphenyl)-5-methoxythiazole-4-carboxylate] | 5 | inhibition at 50 µM (murine ATGL; [2]): 2.2%
CCOC(=O)c1csc(-c2ccc(OC)cc2)n1 [Example 102, Ethyl 2-(4-methoxyphenyl)thiazole-4-carboxylate] | 6 | inhibition at 50 µM (murine ATGL; [2]): 21.5%
CCOc1ccc(-c2nc(C(=O)OC(C)c3nccs3)cs2)cc1 (stereo not drawn) [Example 225, 1-(Thiazol-2-yl)ethyl 2-(4-ethoxyphenyl)thiazole-4-carboxylate] | – | inhibition at 50 µM (murine ATGL; [4]): 68%
CCOc1ccc(-c2ccc(C)c(C(=O)OC(C)C)n2)cc1 [NG-469, reference compound] | – | IC50 (human ATGL; [3]): > 200 µM
CN(C)C(=O)Nc1cccc(-c2ccc(N(C)C)cc2)c1 [atglistatin, reference compound] | – | IC50 (human ATGL; [3]): > 200 µM
COc1ccc(-c2nc(C(=O)OCc3ccsc3)cs2)cc1 [Example 231, Thiophen-3-ylmethyl 2-(4-methoxyphenyl)thiazole-4-carboxylate] | – | IC50 (human ATGL; [5]): 30 µM
COc1cc(C(=O)OC(C)C)nc(-c2ccc(C(C)OC)cc2)c1 (stereo not drawn) [Example 62] | 2 | –
CCOC(=O)c1nc(-c2ccc(OCC)cc2)sc1C(C)C [Example 227, Ethyl 2-(4-ethoxyphenyl)-5-isopropylthiazole-4-carboxylate] | – | inhibition at 50 µM (murine ATGL; [4]): 44%
CCOC(=O)c1cc(-c2ccc(OCC)cc2)ns1 [AMU-27, reference compound] | – | IC50 (human ATGL; [3]): ≥ 200 µM
CC(C)OC(=O)c1ccc(-c2cccc(C(=O)OC(C)C)n2)cc1 [Example 97] | 20 | –
CCOc1ccc(-c2nc(C(=O)OCc3cnco3)cs2)cc1 [Example 220] | – | IC50 (human ATGL; [5]): 30 µM
CCCOc1ccc(-c2nc(C(=O)OCc3ccsc3)cs2)cc1 [Example 232, Thiophen-3-ylmethyl 2-(4-propoxyphenyl)thiazole-4-carboxylate] | – | IC50 (human ATGL; [5]): 12 µM
CC(C)Oc1ccc(-c2nc(C(=O)OCc3ccsc3)cs2)cc1 [Example 233, Thiophen-3-ylmethyl 2-(4-Isopropoxyphenyl)thiazole-4-carboxylate] | – | IC50 (human ATGL; [5]): 10 µM
CCOC(=O)c1cnc(-c2ccc(OCC)cc2)s1 [AM-52, reference compound] | – | IC50 (human ATGL; [3]): > 200 µM
CCOc1ccc(-c2nc(C(=O)OCc3cocn3)cs2)cc1 [Example 218, Oxazol-4-ylmethyl 2-(4-ethoxyphenyl)thiazole-4-carboxylate] | – | IC50 (human ATGL; [5]): 20 µM
CCOC(=O)c1cccc(-c2ccc(C(C)OC)cc2)n1 (stereo not drawn) [Example 45] | 10 | –
CCOC(=O)c1cn(-c2ccc(OCC)cc2)cn1 [AM-30, reference compound] | – | IC50 (human ATGL; [3]): ≥ 200 µM

Now from value to molecule, other results behind:

IC50 (human ATGL; [1]) [µM] | Structure (SMILES) | other results
3 | C#CCOC(=O)c1csc(-c2ccc(OCC)cc2)n1 [Example 149, Prop-2-yn-1-yl 2-(4-ethoxyphenyl)thiazole-4-carboxylate] | –
12 | CCOc1ccc(-c2nc(C(=O)OC(C)(C)C)c(C(=O)C(C)C)s2)cc1 [Example 173, tert-Butyl 2-(4-ethoxyphenyl)-5-isobutyrylthiazole-4-carboxylate] | –
5 | CCOc1ccc(-c2nc(C(=O)OC(C)(C)C)c(C(C)=O)s2)cc1 [Example 171, tert-Butyl 5-acetyl-2-(4-ethoxyphenyl)thiazole-4-carboxylate] | –
20 | CCOc1ccc(-c2nc(C(=O)OCC3CC3)cs2)cc1 [Example 136, Cyclopropylmethyl 2-(4-ethoxyphenyl)thiazole-4-carboxylate] | inhibition at 50 µM (murine ATGL; [2]): 9.8%
10 | CCOc1ccc(-c2nc(C(=O)OC(C)(C)C)c(N3CCCCC3)s2)cc1 [Example 167, tert-Butyl 2-(4-ethoxyphenyl)-5-(piperidin-1-yl)thiazole-4-carboxylate] | –
3 | CCOc1ccc(-c2nc(C(=O)OC3CCOC3)cs2)cc1 (stereo not drawn) [Example 130, Tetrahydrofuran-3-yl 2-(4-ethoxyphenyl)thiazole-4-carboxylate] | inhibition at 50 µM (murine ATGL; [2]): 13.9%
20 | CCOc1ccc(-c2nc(C(=O)OCC=C(C)C)cs2)cc1 [Example 143, 3-Methylbut-2-en-1-yl 2-(4-ethoxyphenyl)thiazole-4-carboxylate] | inhibition at 50 µM (murine ATGL; [2]): 16.8%
15 | CCOc1ccc(-c2nc(C(=O)OCc3cccnc3)cs2)cc1 [Example 160, Pyridin-3-ylmethyl 2-(4-ethoxyphenyl)thiazole-4-carboxylate] | –
20 | CCOC(=O)c1nc(-c2ccc(OCC)cc2)sc1C(C)=O [Example 172, Ethyl 5-acetyl-2-(4-ethoxyphenyl)thiazole-4-carboxylate] | –
25 | CCOc1ccc(-c2nc(C(=O)OC(C)(C)C)c(C(=O)C3CC3)s2)cc1 [Example 174, tert-Butyl 5-(cyclopropanecarbonyl)-2-(4-ethoxyphenyl)thiazole-4-carboxylate] | –
15 | CCOc1ccc(-c2nc(C(=O)OCc3ccccc3)cs2)cc1 [Example 158, Benzyl 2-(4-ethoxyphenyl)thiazole-4-carboxylate] | –
25 | CCOC(=O)c1nc(-c2ccc(OCC)cc2)sc1Br [Example 164, Ethyl 5-bromo-2-(4-ethoxyphenyl)thiazole-4-carboxylate] | –
15 | CCCCCCOC(=O)c1csc(-c2ccc(OCC)cc2)n1 [Example 156, Hexyl 2-(4-ethoxyphenyl)thiazole-4-carboxylate] | –
15 | CCC/C=C/COC(=O)c1csc(-c2ccc(OCC)cc2)n1 [Example 155, (E)-Hex-2-en-1-yl 2-(4-ethoxyphenyl)thiazole-4-carboxylate] | –
5 | CCOC(=O)c1nc(-c2ccc(OCC)cc2)sc1I [Example 165, Ethyl 2-(4-ethoxyphenyl)-5-iodothiazole-4-carboxylate] | –
20 | CCOc1ccc(-c2nc(C(=O)OCc3ccncc3)cs2)cc1 [Example 159, Pyridin-4-ylmethyl 2-(4-ethoxyphenyl)thiazole-4-carboxylate] | –
